Read-outs that look alike come from different tables or passages of the source.

The values below come from paper PMC6156755, “Using Human Plasma as an Assay Medium in Caco-2 Studies Improves Mass Balance for Lipophilic Compounds” (Pharmaceutical Research, 2018).

In series [1] the test system is Caco-2 cell monolayer. The series can be described thus: Caco-2 permeability assay with pH 7.4 buffer or human plasma in both chambers. The following applies: for Mass balance: both directions (where assessed) and both media.
Experiment in series [2]: as above
Particulars: human; for Papp B→A: Caco-2, pH 7.4, Papp B-A; for efflux ratio: Caco-2, pH 7.4, Efflux ratio (B-A/A-B). In general terms: Caco-2 cells form a polarised layer with tight junctions and transporters.

The nature of series [3]: Human plasma protein binding (ultracentrifugation or rapid equilibrium dialysis). It is filed as in vitro ADME. Particulars: for fraction unbound: pH 7.4, neat human plasma, 37°C, concentration comparable to Caco-2 assay, read-out: fu (fraction unbound in plasma). Here is the method:
Binding was assessed using one of two methods: ultracentrifugation ([31]) using neat human plasma or rapid equilibrium dialysis (RED) using either neat or diluted plasma. […] To allow analysis with a single calibration curve, the total plasma and protein-free supernatant samples were ‘matrix-matched’ by taking aliquots of protein-free supernatant samples and adding to fresh tubes containing an equal volume of blank plasma, or taking aliquots of the total plasma samples and adding to fresh tubes containing an equal volume of Dulbecco’s phosphate-buffered saline (DPBS). In this way, the final composition of both the protein-free supernatant samples and the total plasma samples were ‘matched’ prior to the analysis against a common calibration curve prepared in a 1:1 mixture of human plasma and DPBS. All samples were then stored frozen at −80°C until analysis.
The holding plate was then placed on a plate shaker (set at 800 rpm; ThermoMixer C, Eppendorf) and maintained at 37°C under a 2% CO2 atmosphere. The dialysis was conducted for 6 h, assuming steady state was achieved by the end of this period ([32]). Samples were then removed from both the donor and dialysate chambers of each RED insert. […] Samples were matrix matched as described above (but using PBS buffer instead of DPBS) and stored at −80°C until analysis.
For the more lipophilic compounds with potential for very high binding, the RED method was used with diluted plasma to increase the chance of detecting concentrations in the dialysate samples. Diluted human plasma (10% v/v in pH 7.4 phosphate buffered saline) was spiked with each compound (at 10% of the concentration used for the Caco-2 experiment with neat plasma) and binding conducted as described above. The binding in neat plasma was then calculated by correcting for the dilution as described below.
For binding measurements in neat plasma by ultracentrifugation, the fraction unbound (fu) was calculated from the ratio of the average unbound concentration in protein free supernate (Cunbound) to the average total concentration in non-centrifuged plasma (Ctotal). The standard deviation (SD) for the fu value was calculated using the propagation of errors approach as described previously ([33]). For binding measurements using the RED method in neat plasma, fu was calculated from the ratio of the dialysate to total plasma concentration for each dialysis unit and the mean and SD calculated for replicate units (n = 3).
For RED binding assessments using 10% plasma, the fu − diluted for individual dialysis units was calculated in the same way as described above.
(In equilibrium dialysis free small molecules cross a membrane that holds back macromolecules.)

For series [4] the following is noted: cited from earlier work.
The test system of series [5] is Caco-2 cell monolayer.
Series [6] has as its system P-gp. The series can be described thus: Caco-2 permeability assay with pH 7.4 buffer or human plasma in both chambers. The following applies: human, Caco-2, pH 7.4, with verapamil 100 µM, Papp B-A, + 100 μM verapamil.
Series [7] is described as follows: in vitro. Particulars: human; for Papp A→B: Caco-2, pH 7.4, Papp A-B.
[8] abbreviates: buffer (HBSS/HEPES pH 7.4) in both chambers.
Where [9] appears, read: Caco-2, pH 7.4, Papp A-B, buffer pH 7.4 in both chambers.
The mark [10] stands for this setting: Caco-2, pH 7.4, Papp A-B, human plasma in both chambers, corrected for fu in donor.
The mark [11] stands for this setting: human, values from the literature.

Regarding `CNC(=C[N+](=O)[O-])NCCSCc1ccc(CN(C)C)o1` [Ranitidine, ranitidine], in series [1], the Mass balance is given as over 80%. In addition, the “Mass balance A-B” value is 97 ± 11% in series [1] (setting [8]) and 92 ± 7.2% in series [1] (human plasma in both chambers). In addition, the apical-to-basolateral permeability (Papp A→B) (in general, how fast a substance crosses the layer from the apical side) in series [2] (setting [9]) was 0.99 ± 0.11 ×10⁻⁶ cm/s; in series [2] (setting [10]), 2.1 ± 0.058 ×10⁻⁶ cm/s. Further, the fraction unbound (as a rule, the share of the substance not bound to proteins or other matrix) in series [3] worked out at 0.92. For the same molecule, the “Human FA (fraction absorbed)” value in series [4] (setting [11]) is given as 50%.
As for lucifer yellow, in series [3] (human, plasma), the “fu (fraction unbound in plasma)” value came to 0.51. The “Human FA (fraction absorbed)” value in series [4] (in vivo) is on record as 0%. Moreover, in series [5] (Caco-2), the Mass balance is given as over 80%, the “Mass balance A-B” value is recorded as 98 ± 4.7% and the “Papp A-B” value is recorded as 0.17 ± 0.069 10^−6 cm/s. For the same molecule, in series [5] (Caco-2, pH 7.4), the “Mass balance A-B” value is listed as 86 ± 6.7% and the “Papp A-B” value is 0.21 ± 0.085 10^−6 cm/s.
Consider `C[C@H]1O[C@@H](O[C@H]2[C@@H](O)C[C@H](O[C@H]3[C@@H](O)C[C@H](O[C@H]4CC[C@@]5(C)[C@H](CC[C@@H]6[C@@H]5C[C@@H](O)[C@]5(C)[C@@H](C7=CC(=O)OC7)CC[C@]65O)C4)O[C@@H]3C)O[C@@H]2C)C[C@H](O)[C@@H]1O` [^3H-Digoxin, [^3H(G)]-digoxin], for which the “Mass balance B-A” value amounted to 100 ± 0% in series [1] (buffer pH 7.4 in both chambers); 100 ± 0.58% in series [1] (buffer, + 100 μM verapamil); 100 ± 5.8% in series [1] (human plasma in both chambers); 99 ± 0.58% in series [1] (plasma, + 100 μM verapamil). The “Mass balance A-B” value was found to be 99 ± 0.58% in series [1] (buffer, + 100 μM verapamil (P-gp inhibitor)) and 96 ± 2.1% in series [1] (plasma, + 100 μM verapamil). For the same molecule, the Papp A→B in series [2] (setting [9]) was found to be 2.7 ± 0.21 ×10⁻⁶ cm/s; in series [2] (Caco-2, pH 7.4, with verapamil 100 µM, Papp A-B, buffer, + 100 μM verapamil) it was 4.6 ± 0.46 ×10⁻⁶ cm/s; in series [2] (Caco-2, pH 7.4, with verapamil 100 µM, Papp A-B, plasma, + 100 μM verapamil, corrected for fu), 6.2 ± 1 ×10⁻⁶ cm/s; in series [7] it was 4.7 ± 0.15 ×10⁻⁶ cm/s. Besides, the apparent permeability from basolateral to apical (Papp B→A) – broadly, how fast a substance crosses the layer from the basolateral side – in series [2] (buffer pH 7.4 in both chambers) came out at 18 ± 0.58 ×10⁻⁶ cm/s; in series [6] (buffer), 5.8 ± 0.53 ×10⁻⁶ cm/s; in series [6] (plasma, corrected for fu), 7.4 ± 0.49 ×10⁻⁶ cm/s; in series [7] (Caco-2, pH 7.4, Papp B-A), 26 ± 1.5 ×10⁻⁶ cm/s. Moreover, the fraction unbound in series [3] came to 0.61.
On to `OC[C@@H](O)[C@@H](O)[C@H](O)[C@H](O)CO` [^14C-Mannitol, D-[1-^14C]-mannitol], for which, in series [1], the Mass balance is over 80%. Also, the “Mass balance A-B” value turned out to be 99 ± 2.3% in series [1] (setting [8]) and 96 ± 4.0% in series [1] (human plasma in both chambers). In addition, the “Mass balance B-A” value is recorded as 99 ± 1.7% in series [1] (buffer pH 7.4 in both chambers) and 97 ± 5.2% in series [1] (human plasma in both chambers). Also, the efflux ratio – broadly, a quotient of directional permeabilities that is used to spot active efflux – in series [2] (buffer pH 7.4 in both chambers) came to 1.9 ± 0.35; in series [2] (human plasma in both chambers), 1.4 ± 0.37. Also, the Papp A→B turned out to be 0.29 ± 0.051 ×10⁻⁶ cm/s in series [2] (setting [9]) and 0.31 ± 0.081 ×10⁻⁶ cm/s in series [2] (setting [10]). Also, the Papp B→A came out at 0.56 ± 0.026 ×10⁻⁶ cm/s in series [2] (buffer pH 7.4 in both chambers) and 0.43 ± 0.021 ×10⁻⁶ cm/s in series [2] (human plasma in both chambers, corrected for fu in donor). Also, the fraction unbound in series [3] came to 0.83. Also, the “Human FA (fraction absorbed)” value in series [4] (setting [11]) is listed as 26%.
In the case of `CN/C(=N/CCSCc1nc[nH]c1C)NC#N` [Cimetidine, cimetidine], in series [1], the Mass balance was over 80%. The results for the Papp A→B in series [2] (setting [9]) and in series [7] were 1.7 ± 0.45 ×10⁻⁶ cm/s and 1.9 ± 0.26 ×10⁻⁶ cm/s, respectively. Moreover, the fraction unbound in series [3] is 0.76. Further, in series [4] (setting [11]), the “Human FA (fraction absorbed)” value is 64%.
